{"source": "patent US20120128580A1", "about": "“PRESELECTION OF SUBJECTS FOR THERAPEUTIC TREATMENT WITH ELESCLOMOL BASED ON HYPOXIC STATUS” (SYNTA PHARMACEUTICALS CORP., priority 2010, published 2012)", "key": {"[1]": {"tested_on": "Stage 1V Metastatic melanoma", "assay": "Phase I/II study, elesclomol in combination with paclitaxel", "type": "in vivo, human", "settings": "i.v. weekly for three weeks of 28 day cycle", "procedure": "For example, a Phase I/II study was performed to test elesclomol in combination with paclitaxel in patients with Stage 1V Metastatic melanoma. Subjects were dosed intravenously with 80 mg/m^2 of paclitaxel either with or without 213 mg/m^2 of elesclomol once per week for the first three weeks, followed by one week off (i.e., a 28 day cycle with dosing on days 1, 8, and 14) with the 28 day dosing cycle repeated until tumor progression, likely resulting in complete clearance of elesclomol between doses."}, "[2]": {"tested_on": "Stave IV Metastatic melanoma", "assay": "Phase III study, elesclomol in combination with paclitaxel versus paclitaxel alone", "type": "in vivo, human", "settings": "for Median (months) Overall Survival / Median (months) PFS: Phase III; for Median Progression Free Survival: Phase III metastatic melanoma, chemotherapy-naive", "procedure": "Further, a Phase III study was performed to test elesclomol in combination with paclitaxel versus paclitaxel alone in chemotherapy-naïve subjects with Stave IV Metastatic melanoma. Subjects with metastatic melanoma were randomized with a ratio of 1:1 to either the treatment arm (elesclomol 213 mg/m^2 in combination with paclitaxel 80 mg/m^2) or the control arm (paclitaxel 80 mg/m^2 alone) once per week for the first three weeks, followed by one week off (i.e., a 28 day cycle with dosing on days 1, 8, and 14) with the 28 day dosing cycle repeated until tumor progression, likely resulting in complete clearance of elesclomol between doses. The population enrolled into the study was to have baseline LDH levels limited to 2 times upper limit of normal (ULN) values."}}}
{"smiles": "CC(=O)O[C@H]1C(=O)[C@@]2(C)[C@H]([C@H](OC(=O)c3ccccc3)[C@]3(O)C[C@H](OC(=O)[C@H](O)[C@@H](NC(=O)c4ccccc4)c4ccccc4)C(C)=C1C3(C)C)[C@]1(OC(C)=O)CO[C@@H]1C[C@@H]2O", "note": "[P alone, paclitaxel]", "values": [{"measurement": "Median Progression Free Survival", "setting": "[1]; High LDH", "result": "1.6 (95% CI: 1.0-3.0) months"}, {"measurement": "Median Progression Free Survival", "setting": "[1]; High LDH, listed as paclitaxel", "result": 1.6, "unit": "months"}, {"measurement": "Median Progression Free Survival", "setting": "[1]; Low LDH", "result": "3.5 (95% CI: 1.6-7.3) months"}, {"measurement": "Median Progression Free Survival", "setting": "[1]; Low LDH, listed as paclitaxel", "result": 3.5, "unit": "months"}, {"measurement": "Median (months) Overall Survival", "setting": "[2]; High LDH (>1 × ULN)", "result": 8.1, "unit": "months"}, {"measurement": "Median (months) PFS", "setting": "[2]; High LDH (>1 × ULN)", "result": 1.9, "unit": "months"}, {"measurement": "Median Progression Free Survival", "setting": "[2]; High LDH", "result": "1.9 (95% CI: 1.8-2.6) months"}, {"measurement": "Median (months) Overall Survival", "setting": "[2]; ITT Population", "result": 11.7, "unit": "months"}, {"measurement": "Median (months) PFS", "setting": "[2]; ITT Population", "result": 1.9, "unit": "months"}, {"measurement": "Median (months) PFS", "setting": "[2]; Low LDH (≦0.8 × ULN)", "result": 2.1, "unit": "months"}, {"measurement": "Median (months) Overall Survival", "setting": "[2]; Low LDH (≦0.8 × ULN), listed as Paclitaxel alone", "result": "Not Ach."}, {"measurement": "Median (months) Overall Survival", "setting": "[2]; Low LDH (≦0.8 × ULN), listed as paclitaxel alone", "result": "not achieved"}, {"measurement": "Median Progression Free Survival", "setting": "[2]; Low LDH", "result": "2.1 (95% CI: 1.9-3.6) months"}, {"measurement": "Median (months) Overall Survival", "setting": "[2]; Normal LDH (≦1 × ULN)", "result": 14.5, "unit": "months"}, {"measurement": "Median (months) PFS", "setting": "[2]; Normal LDH (≦1 × ULN)", "result": 2.1, "unit": "months"}]}
